Earlier results in paper PMC8886800 (Journal of the American Chemical Society, 2021).

## Ac-KLTWMELY QLAYKGI [MA]
angiogenesis
  effect on angiogenesis (reported): capable of inhibiting angiogenesis
VEGFR
  binding to VEGF receptors (reported): demonstrated binding to VEGF receptors
